Data set [1] addresses Leucine--tRNA ligase, cytoplasmic (Homo sapiens) (UniProt Q9P2J5). The data set can be described thus: Inhibition of leucyl-tRNA synthetase (unknown origin) expressed in HEK293 cells assessed as inhibition of leucine-induced mTORC1-mediated S6 kinase phosphorylation pre-treated at 1 mM followed by leucine stimulation for 10 mins by immunoblotting analysis. The class given is cell-based.

Data set [2] has as its system SW-620. Briefly: Cytotoxicity against rapamycin resistant human SW620 cells at 400 uM to 4 mM by CellTox green fluorescent dye based assay. In kind it is functional, cell-based.
In data set [3] the test system is HEK293. The data set can be described thus: Effect on cellular Akt level in HEK293 cells pre-treated at 800 uM followed by leucine stimulation for 10 mins by immunoblotting analysis. In kind it is ADME, cell-based. The settings on record: human, hek293, 800 µM.
Data set [4] deals with HEK293. Briefly: Inhibition of mTORC2 (unknown origin) expressed in HEK293 cells assessed as inhibition of leucine-induced Akt S473 phosphorylation pre-treated at 800 uM followed by leucine stimulation for 10 mins by immunoblotting analysis. The class given is cell-based. To be noted: Homo sapiens.
The target in data set [5] is Leucine--tRNA ligase, cytoplasmic (Homo sapiens) (UniProt Q9P2J5). The data set can be described thus: Inhibition of leucyl-tRNA synthetase (unknown origin) expressed in HEK293 cells assessed as inhibition of leucine-induced mTORC1-mediated S6 kinase phosphorylation pre-treated at 800 uM followed by leucine stimulation for 10 mins by immunoblotting analysis. The class given is cell-based.
Chain of Leucine--tRNA ligase, cytoplasmic (Homo sapiens) (Q9P2J5 whole entry, looked up): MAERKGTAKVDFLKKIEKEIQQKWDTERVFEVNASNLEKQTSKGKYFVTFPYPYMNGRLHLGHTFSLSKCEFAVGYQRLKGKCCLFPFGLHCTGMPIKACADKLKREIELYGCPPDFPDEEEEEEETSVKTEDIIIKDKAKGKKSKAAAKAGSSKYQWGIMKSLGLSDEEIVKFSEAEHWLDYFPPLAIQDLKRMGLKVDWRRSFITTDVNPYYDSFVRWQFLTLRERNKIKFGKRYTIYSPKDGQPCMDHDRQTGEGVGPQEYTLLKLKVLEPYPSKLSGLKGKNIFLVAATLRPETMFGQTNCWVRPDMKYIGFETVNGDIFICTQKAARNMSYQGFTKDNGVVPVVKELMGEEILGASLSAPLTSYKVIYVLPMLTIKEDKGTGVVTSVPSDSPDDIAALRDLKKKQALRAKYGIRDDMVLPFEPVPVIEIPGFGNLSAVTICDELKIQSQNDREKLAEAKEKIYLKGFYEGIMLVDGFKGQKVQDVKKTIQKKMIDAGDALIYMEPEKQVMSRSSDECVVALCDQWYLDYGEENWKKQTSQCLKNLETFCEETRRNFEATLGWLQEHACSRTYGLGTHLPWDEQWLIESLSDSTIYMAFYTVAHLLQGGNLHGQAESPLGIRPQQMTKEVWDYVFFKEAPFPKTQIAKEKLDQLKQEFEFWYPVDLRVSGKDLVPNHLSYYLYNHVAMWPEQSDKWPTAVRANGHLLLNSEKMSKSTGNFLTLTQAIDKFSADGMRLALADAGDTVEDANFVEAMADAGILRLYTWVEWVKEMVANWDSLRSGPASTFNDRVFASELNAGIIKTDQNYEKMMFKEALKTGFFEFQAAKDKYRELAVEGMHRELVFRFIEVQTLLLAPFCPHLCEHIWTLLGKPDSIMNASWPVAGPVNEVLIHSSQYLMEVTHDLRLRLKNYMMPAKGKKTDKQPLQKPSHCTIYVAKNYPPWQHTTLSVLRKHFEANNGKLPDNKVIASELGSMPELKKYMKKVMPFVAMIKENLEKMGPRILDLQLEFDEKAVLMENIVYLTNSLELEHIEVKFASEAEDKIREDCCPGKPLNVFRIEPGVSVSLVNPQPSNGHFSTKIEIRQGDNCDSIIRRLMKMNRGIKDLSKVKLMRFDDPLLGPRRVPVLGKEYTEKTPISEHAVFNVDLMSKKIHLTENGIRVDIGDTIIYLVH

Data set [6] has the same target. The data set can be described thus: Inhibition of leucyl-tRNA synthetase (unknown origin) expressed in HEK293 cells assessed as inhibition of leucine-induced mTORC1-mediated S6 kinase phosphorylation pre-treated at 100 nM followed by leucine stimulation for 10 mins by immunoblotting analysis. In kind it is cell-based.
Data set [7] deals with HEK293. The data set can be described thus: Effect on cellular Akt level in HEK293 cells pre-treated at 100 nM followed by leucine stimulation for 10 mins by immunoblotting analysis. In kind it is ADME, cell-based. To be noted: human, hek293, 0.1 µM.
The subject of data set [8] is HEK293. The data set can be described thus: Inhibition of mTORC2 (unknown origin) expressed in HEK293 cells assessed as inhibition of leucine-induced Akt S473 phosphorylation pre-treated at 100 nM followed by leucine stimulation for 10 mins by immunoblotting analysis. The class given is cell-based. The settings on record: Homo sapiens.
The test system of data set [9] is SW-620. The data set can be described thus: Cytotoxicity against rapamycin resistant human SW620 cells at 1 uM by CellTox green fluorescent dye based assay. The class given is functional, cell-based.
In data set [10] the target is Leucine--tRNA ligase, cytoplasmic (Homo sapiens) (UniProt Q9P2J5). Briefly: Inhibition of leucyl-tRNA synthetase (unknown origin) catalytic activity assessed as aminoleucylation.
Data set [11] relates to HEK293. The data set can be described thus: Effect on cellular Akt level in HEK293 cells pre-treated at 100 nM to 800 uM followed by leucine stimulation for 10 mins by immunoblotting analysis. The class given is cell-based. The settings on record: human.
Data set [12] deals with Leucine--tRNA ligase, cytoplasmic (Homo sapiens) (UniProt Q9P2J5). Briefly: Inhibition of leucyl-tRNA synthetase (unknown origin) expressed in HEK293 cells assessed as inhibition of leucine-induced mTORC1-mediated S6 kinase phosphorylation pre-treated with compound followed by leucine stimulation for 10 mins by immunoblotting analysis. The class given is cell-based.
Data set [13] relates to HEK293. The data set can be described thus: Inhibition of mTORC2 (unknown origin) expressed in HEK293 cells assessed as inhibition of leucine-induced Akt S473 phosphorylation pre-treated at 100 nM to 800 uM followed by leucine stimulation for 10 mins by immunoblotting analysis. In kind it is cell-based. The settings on record: Homo sapiens.
Data set [14] relates to SW-620. The data set can be described thus: Cytotoxicity against rapamycin resistant human SW620 cells by CellTox green fluorescent dye based assay. In kind it is functional, cell-based.

Calls of active or inactive are those of the source. The calls are words filed in the database; no cut-off is given here.

Turning to `CC(C)C[C@H](N)COS(C)(=O)=O`, the inhibition entry in data set [1] is “inactive”.
Still for that read-out and setting: the entry for `CC(C)C[C@H](N)CCN` is “inactive”; for `CC(C)C[C@H](N)[C@H](C)O` it is “inactive”.
In the case of `CC(C)C[C@H](N)CO`, in data set [2], the result was Active. Further, the Activity entry in [3] is reported as “Non-toxic”. Further, the inhibition entry in data set [4] was “inactive”. Further, the inhibition entry in data set [1] and in [5] was “Active” each time.
Consider `CC(C)C[C@H](N)[C@@H](C)O`, for which the inhibition entry in data set [1] is “inactive”.
As for `CO[C@H]1C[C@@H]2CC[C@@H](C)[C@@](O)(O2)C(=O)C(=O)N2CCCC[C@H]2C(=O)O[C@H]([C@H](C)C[C@@H]2CC[C@@H](O)[C@H](OC)C2)CC(=O)[C@H](C)/C=C(\C)[C@@H](O)[C@@H](OC)C(=O)[C@H](C)C[C@H](C)/C=C/C=C/C=C/1C` [SIROLIMUS], the inhibition result in data set [6] was “Active”. The Activity entry in [7] is given as “Non-toxic”. Also, the inhibition entry in [8] was “inactive”. In data set [9], the result was inactive.
For `CC(C)Cc1ncc[nH]1`, the inhibition result in data set [10] and in data set [13] was “inactive” throughout. Besides, the Activity result in data set [11] is “Non-toxic”. The inhibition entry in [12] was “Dose-dependent effect”. In data set [1], the inhibition entry is “Active”.
For the compound `COC[C@@H](N)CC(C)C`, the inhibition entry in [1] is “inactive”.
For the compound `CC(C)C[C@H](N)CN`, the inhibition entry in data set [1] was “inactive”.
The same measure, in the same setting: in the case of `CC(C)C[C@H](N)CCO` it was “inactive”; in that of `CC(C)C[C@H](N)/C=N/O`, “inactive”.
Consider `CC(C)C[C@H]1CNC(=O)N1`, for which the inhibition entry in data set [10] and in data set [13] was “inactive” throughout. For the same compound, the Activity result is “Non-toxic” in data set [11] and “Dose-dependent effect” in data set [14]. For the same compound, in data set [12], the inhibition result was “Dose-dependent effect”. Besides, in data set [1], the inhibition result is “Active”.
As for `CC(C)C[C@H](N)CNO`, the Activity result in data set [11] is on record as “Non-toxic”. Also, the inhibition result in data set [12] is “Dose-dependent effect”. In [13], the inhibition entry was “inactive”. Moreover, the inhibition entry in [1] was “Active”.
In the case of `CC(C)C[C@H]1COC(=O)N1`, the Activity result in [11] is “Non-toxic”. In data set [12], the inhibition result is “Dose-dependent effect”. Further, in [13], the inhibition result was “inactive”. The inhibition result in data set [1] was “Active”.
In the case of `CC(C)C[C@H](N)CNS(C)(=O)=O`, the inhibition entry in data set [1] is “inactive”.
Still for that read-out and setting: in the case of `CC(=O)NC[C@@H](N)CC(C)C` it was “inactive”.
